# Measurements: ChEMBL document CHEMBL5230145, “Bifunctional μ opioid and σ1 receptor ligands as novel analgesics with reduced side effects” (Eur J Med Chem, 2021)
# Assays:
# [1] = tested on: Rodentia sp.; experiment: Analgesic activity in ip dosed formalin-induced pain rodent model; assay type: functional
# [2] = Toxicity in ip dosed rodent; assay type: organism-based; conditions: rodentia, in vivo
# [3] = Therapeutic index, ratio of LD50 for toxicity in ip dosed rodent to ED50 for analgesic activity in ip dosed rodent; assay type: organism-based; conditions: rodentia, in vivo, read-out: Ratio LD50/ED50
# [4] = molecular target: T1, Mu-type opioid receptor (Homo sapiens, UniProt P35372); experiment: Binding affinity to mu opioid receptor (unknown origin) assessed as inhibition constant in presence of Levorphanol
# [5] = tested on: Mus musculus; experiment: Antiallodynic activity in ip dosed MIA induced mechanical allodynia mouse model; assay type: functional
# [6] = molecular target: T1, Mu-type opioid receptor; experiment: Displacement of [3H]-DAMGO from human mu opioid receptor expressed in CHO-K1 cells membrane incubated for 60 mins by MicroBeta scintillation counter assay; assay type: cell membranes
# [7] = molecular target: Sigma non-opioid intracellular receptor 1 (Homo sapiens, UniProt Q99720); experiment: Displacement of [3H](+)-pentazocine from human sigma 1 receptor expressed in HEK293 cells membrane incubated for 120 mins by MicroBeta scintillation counter assay; assay type: cell membranes
# [8] = Metabolic stability in mini-pig liver microsomes assessed as compound remaining after 1 hr; assay type: ADME, Sus scrofa domesticus, Microsome; conditions: read-out: Stability
# [9] = tested on: Rattus norvegicus; experiment: Analgesic activity in ig dosed formalin-induced pain Sprague-Dawley rat model; assay type: functional; conditions: po
# [10] = Toxicity in ig dosed Sprague-Dawley rat; assay type: organism-based; conditions: in vivo, po
# [11] = Therapeutic index, ratio of LD50 for toxicity in ig dosed Sprague-Dawley rat to ED50 for analgesic activity in ig dosed Sprague-Dawley rat; assay type: organism-based; conditions: in vivo, po, read-out: Ratio LD50/ED50
# Chain of Sigma non-opioid intracellular receptor 1 (Q99720 whole entry): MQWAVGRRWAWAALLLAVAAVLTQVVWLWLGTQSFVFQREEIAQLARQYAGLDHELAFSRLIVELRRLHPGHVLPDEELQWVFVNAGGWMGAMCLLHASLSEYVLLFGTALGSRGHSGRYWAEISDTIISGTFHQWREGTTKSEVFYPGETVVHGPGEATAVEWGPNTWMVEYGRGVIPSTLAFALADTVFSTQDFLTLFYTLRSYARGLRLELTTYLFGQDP
# T1 sequence (P35372 whole entry): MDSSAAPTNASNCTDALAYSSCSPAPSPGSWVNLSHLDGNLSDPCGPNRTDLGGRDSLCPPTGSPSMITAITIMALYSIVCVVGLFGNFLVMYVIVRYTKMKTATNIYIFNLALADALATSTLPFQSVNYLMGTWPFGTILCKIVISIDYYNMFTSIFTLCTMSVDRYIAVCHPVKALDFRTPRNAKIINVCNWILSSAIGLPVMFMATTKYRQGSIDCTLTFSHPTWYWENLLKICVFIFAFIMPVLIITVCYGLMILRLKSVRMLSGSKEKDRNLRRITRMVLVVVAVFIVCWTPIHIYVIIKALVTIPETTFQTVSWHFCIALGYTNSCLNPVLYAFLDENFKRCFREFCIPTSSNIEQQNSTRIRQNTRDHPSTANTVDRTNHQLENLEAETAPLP
structure (smiles),measurement,setting,value
Cc1cc(OCCN2CCOCC2)nn1-c1ccc2ccccc2c1,ED50,[1],33.2 mg/kg
same,LD50,[2],397 mg/kg
same,selectivity ratio,[3],12
C[C@@H]1[C@@H]2Cc3ccc(O)cc3[C@]1(C)CCN2CCc1ccccc1,Ki,[4],0.055 µM
C[C@H]1[C@H]2Cc3ccc(O)cc3[C@@]1(C)CCN2CCc1ccccc1,Ki,[4],0.0002 µM
CCC(=O)N(CC1(N2CCN(CC(C)C)CC2)CCOCC1)c1cccc(C(F)(F)F)n1,ED50,[5],31.9 mg/kg
CC(=O)Oc1cccc(C2CCN(Cc3cn(-c4ccccc4)nn3)CC2)c1,Ki,[6],< 0.1 µM
same,Ki,[7],< 0.1 µM
[2H]C([2H])([2H])C([2H])([2H])N1CC2(CCN(C([2H])([2H])C([2H])([2H])c3cc(F)ccc3F)CC2)O[C@H](C)C1=O,remaining at 1 h,[8],64%
CC(C)S(=O)(=O)Nc1cccc(C2CCN(Cc3cn(-c4ccccc4)nn3)CC2)c1,Ki,[6],< 0.1 µM
same,Ki,[7],< 0.1 µM
CN1CCc2ccccc2C12CCN(CCc1ccccc1)CC2,Ki,[6],< 0.1 µM
same,Ki,[7],< 0.1 µM
CC(C)S(=O)(=O)Nc1cccc(N2CCN(Cc3cn(-c4ccccc4F)nn3)CC2)c1,Ki,[6],< 0.1 µM
same,Ki,[7],< 0.1 µM
CC(C)S(=O)(=O)Nc1cccc(N2CCN(Cc3cn(-c4ccccc4)nn3)CC2)c1,Ki,[6],< 0.1 µM
same,Ki,[7],< 0.1 µM
COc1ccc2c(c1)CCN(C)C21CCN(CCc2ccccc2)CC1,Ki,[6],< 0.1 µM
same,Ki,[7],< 0.1 µM
CCOCCN1CCCCC(CC)(c2cccc(O)c2)C1 (stereo unspecified),Ki,[6],< 0.1 µM
same,Ki,[7],< 0.1 µM
CCC(=O)N(CCN1CCC(N(C)Cc2ccccc2)C1)c1ccccc1 (stereo unspecified),Ki,[7],0.1 µM
O=C(c1ccccn1)C1(N2CCN(Cc3ccccc3)CC2)CCOC2(CCCC2)C1 (stereo unspecified),Ki,[6],< 0.1 µM
same,Ki,[7],< 0.1 µM
CCN1CC2(CCN(CCc3ccccc3)CC2)c2ccccc2C1=O,Ki,[6],0.1 µM
same,Ki,[7],0.1 µM
CN(CCOC(c1cccs1)c1ccnn1C)Cc1ccccc1 (stereo unspecified),Ki,[6],< 0.1 µM
same,Ki,[7],< 0.1 µM
Clc1ccc(-c2noc(CCCCN3CCCCC3)n2)c(Cl)c1,ED50,[9],52.5 mg/kg
same,LD50,[10],957 mg/kg
same,selectivity ratio,[11],18.2
Oc1cccc(C2CCN(Cc3cn(-c4ccccc4)nn3)CC2)c1,Ki,[6],< 0.1 µM
same,Ki,[7],< 0.1 µM
CN1CC2(CCN(CCc3ccccc3)CC2)c2ccccc2C1=O,Ki,[6],0.1 µM
same,Ki,[7],0.1 µM
CN(CCOC(c1cccs1)c1ccnn1C)CCc1ccccc1 (stereo unspecified),Ki,[6],< 0.1 µM
same,Ki,[7],< 0.1 µM
O=C(c1ccccc1)C1(N2CCN(Cc3ccccc3)CC2)CCOC2(CCCC2)C1 (stereo unspecified),Ki,[6],< 0.1 µM
same,Ki,[7],< 0.1 µM
O=C(c1cccc(C(F)(F)F)n1)C1(N2CCN(Cc3ccccc3)CC2)CCOC2(CCCC2)C1 (stereo unspecified),Ki,[6],< 0.1 µM
same,Ki,[7],< 0.1 µM
